Results on 3 compounds are retold here after patent US20200024246A1, “POGOSTONE DERIVATIVES AND METHODS OF USING THE SAME” (Hamyard Associates LLC, priority 2018, published 2020).

A word on the LC50: it is the concentration lethal to half of the exposed cells or organisms. A higher LC50 goes with lower toxicity.

Data set [1] has as its system Dandelion (Taraxacum officinale). Description: Soil drench herbicidal test, dandelion. Type of data set: in vivo. Particulars: Dandelion; 2 weeks after soil drench - 40 mL of 0.5% solution; Rep 1 and 2. The method, then: Dandelion (Taraxacum officinale) seeds were obtained from the Department of Agronomy at Iowa State University. Individual seeds were sown for each pot (6″ wide×4.5″ deep) with approximately 800 mL of soil for each plan. Only plants that germinated were used for the study. Plants were treated 1-2 weeks post emergence. Plants were watered every 2-3 days as needed. Giant foxtail (Setaria faberi) seeds were obtained from the Department of Agronomy at Iowa State University. Three seeds were sown for each pot (6″ wide×4.5″ deep) with approximately 800 mL of soil for each plan. Only plants that germinated were used for the study. Plants were treated 1-2 weeks post emergence. Plants were watered every 2-3 days as needed.
Formulations of the various active ingredients were created using the disclosed pogostone derivatives and Triton-X 100 to aid in the solvation of the active ingredient. Formulations consisted of 0.5% active ingredient by weight. […] 40 mL of formulation ([…] active ingredient) was applied to each pot containing approximately 3-5 plants per pot at 2-3 weeks after emergence. Observations were performed 3 days and 2 weeks after soil drench to determine the effects of the treatments on the various types and stages of plants. […]

The test system of another data set is soybean aphids. Nature of the data set: Soybean aphid leaf dip assay for DHAA-based derivatives. The settings on record: 24 hours. The format is in vivo. How it is done: Isolated soybean leaves were dipped into a pyrone solution containing either 0.5% or 1.5% of select DHAA-based derivatives. The leaves were allowed to dry for 30 minutes, and then place in a dish. Ten soybean aphids were placed on each leaf. Mortality was assessed at 24 hours.

Another data set relates to adult flies. Description: Contact toxicity on treated filter paper. Type of data set: in vivo. Particulars: filter paper treated with 1 mL in acetone; 24 hours. The method, then: Filter papers were treated with 1 mL of the disclosed compounds in acetone at varying concentrations, and the filter papers were placed in a dish. Ten adult flies were added to each dish and a sugar pad was added to each dish to ensure that any mortality could be attributed to the compound instead of starvation. Mortality was assessed at 24 hours.

The test system of the next data set is adult female mosquitoes. Nature of the data set: whole plant or invertebrate. The settings on record: for 1-hour Knockdown EC50 (μg/g mosquito) / LD50: topical; for LD50: 24 h, read-out: 24-hour Mortality LD50 (μg/g mosquito). How it is done:
The first group of DHAA-based derivatives that were tested included Formula A2, Formula B3, Formula C3, and Formula D3. A solution of 0.5% or 1.5% of each of these compounds was applied to the mosquitoes, as described above. […] Acetone was used as a control.

In another data set the test system is house flies. Nature of the data set: Knockdown and mortality of DHAA-based derivatives on house flies. Type of data set: in vivo, house fly. An excerpt:
Accordingly, further derivatives with structures similar to Formula C3 were synthesized and tested for knockdown potential and mortality in house flies and mosquitoes using an experimental design similar to the one described above. These compounds include Formula C5, Formula C6, Formula C7, Formula C8, Formula C9, and Formula C10.

The test system of a further data set is corn seeds. Nature of the data set: Seed treatment testing: survival/germination of treated corn seeds (FIG. 2B). The format is in vivo. Particulars: seeds coated with compound; 1 week after introduction of larvae. The method, then: (§1) Corn seeds used were a non-transgenic type strain of corn to prevent confounding results. Germination typically occurred between 2-4 days after moistening.
(§2) Seed coating was accomplished by placing 20 g of corn seeds or soybeans into a container with approximately 1 mL of a 1:5 Elmer's glue:water solution with a small amount of Triton-X100™ (present 100 μL/5 mL). For solid compounds, 0.25 g of compound was subsequently introduced into the container. This mixture of seeds, Elmer's Glue/water/Triton-X 100™ solution, and active compound was mixed thoroughly until seeds were coated with the active ingredient.
(§3) For each treatment, 0.25 g of liquid compound was dissolved in 5 mL of hexane. 0.25 g of Hi-Sil 233 silica gel was introduced into this mixture of hexane and active ingredient. The solvent was blown-off using a rotary evaporator, allowing for the compound to adsorb to the silica gel. This 0.5 g of silica gel:active ingredient was then used as the solid material used for coating the seeds. The seeds were then coated with the same method used for solid compound.
(§4) Three corn seeds coated in pogostone derivative treatments were germinated in small, 2-oz. […] Germination of seedlings was also recorded at the end of the assay by counting the total number of seeds that produced roots out of the 3 seeds in each container/replicate and recorded as total percentage germination. […]

Data set [2] concerns 3-4 instar Aedes aegypti larvae. Nature of the data set: Mosquito larvicide bioassay. Type of data set: in vivo. Particulars: Aedes aegypti, 24 h. The method, then: Mosquito larvicide bioassays were performed by introducing various concentrations of test compounds (pyrone derivatives and rotenone) into acetone at various concentrations. 200 uL of these solutions were added to individual cups containing 10, 3-4 instar Aedes aegypti larvae and 25 mL of DI water. 2 mg of Tetramin™ was provided to each cup as a food source. […] Ataxia was used as the indicator of larval mortality. At least 5 concentrations were used which caused between 10 and 90% mortality. LC50 values were calculated using a PROC PROBIT model in SAS 9.4.

Data set [3] concerns Western corn rootworm larvae. Nature of the data set: Seed treatment testing: rootworm survival (FIG. 2A). Type of data set: in vivo. Particulars: seeds coated with compound; 1 week after introduction of larvae. The method, then: as §1, §2, §3, §4
A further data set relates to adult, female mosquitoes. Nature of the data set: Topical application on adult female mosquitoes (24-h mortality, 1-h knockdown). The format is in vivo, mosquito.

≈ marks a conversion by molar mass, not a printed value. Where “and” joins values, the source holds several entries; their conditions need not be identical. Identical values can stand only once.

`O=C(O)COc1ccc(Cl)cc1Cl` [2,4-D, 2,4-dichlorophenoxyacetic acid]: in data set [1], the “% mortality” value is 100% and 80%.
Consider `Cc1cc(O)c(C(=O)CC(O)C(C)C)c(=O)o1` (stereo not drawn) [Formula C10], for which the soybean aphids dead result in the data set with soybean aphids (leaf dipped in 0.5% solution) is given as “Roughly 67%”. Moreover, the soybean aphids dead result in the data set with soybean aphids (leaf dipped in 1.5% solution) is “Roughly 90%”. In the data set on adult flies, the “percent mortality, 0.10% Concentration” value came out at 15%; the “percent mortality, 0.25% Concentration” value came to 0%; the “percent mortality, 0.50% Concentration” value is 45%. Moreover, in the data set with adult female mosquitoes (0.5% concentration), the “Mosquito Knockdown at 0.5% concentration” value is given as 100% and the “Mosquito Mortality at 0.5% concentration” value was 100%. Further, in the data set on adult female mosquitoes (1.5% concentration), the “Mosquito Knockdown at 1.5% concentration” value was determined as 100% and the “Mosquito Mortality at 1.5% concentration” value amounted to 100%. In the data set with adult female mosquitoes, the “1-hour Knockdown EC50 (μg/g mosquito)” value was determined as 49 μg/g mosquito and the LD50 was 29 mg/kg. For the same compound, the “ranking in knockdown and mortality screenings” value with adult female mosquitoes (words) is “performed the best in the initial knockdown and mortality screenings”. Also, in the data set with house flies (0.5% concentration), the “House Fly Knockdown at 0.5% concentration” value is 52.5% and the “House Fly Mortality at 0.5% concentration” value amounted to 23%. Moreover, in the data set on house flies (1.5% concentration), the “House Fly Knockdown at 1.5% concentration” value is given as 64% and the “House Fly Mortality at 1.5% concentration” value was found to be 24%.
With `Cc1cc(O)c(C(=O)CCC(C)C)c(=O)o1` [Pogostone, 3-(4-Methylpentanoyl)-4-hydroxy-2H], in the data set on corn seeds, the “phytotoxicity to treated corn seeds” value is recorded as “Significant phytotoxicity”. Also, the LC50 in [2] is 18.3 µg/mL (≈ 81.6 µM). The “western corn rootworm mortality” value in [3] was “significant western corn rootworm mortality”. Moreover, in the data set on adult flies, the “percent mortality, 0.10% Concentration” value came to 95%; the “percent mortality, 0.25% Concentration” value is recorded as 100%; the “percent mortality, 0.50% Concentration” value was 100%. Further, in the data set on adult female mosquitoes, the “1-hour Knockdown EC50 (μg/g mosquito)” value is recorded as 95.2 μg/g mosquito and the LD50 was found to be 262 mg/kg. For the same compound, the ED50 with adult, female mosquitoes (Mosquito Knockdown Properties (1 hour), topical application, read-out: KD50 (ug/g mosquito)) was determined as 18.4 mg/kg. Further, in the data set on adult, female mosquitoes (Mosquito Toxicity (24 hours), topical application to pronotum, read-out: LD50 (ug/g mosquito)), the LD50 worked out at 388 mg/kg.
